From patent US10758524B2, “Compositions and methods for selectively depleting senescent cells” (BioVentures, LLC, priority 2014, dated 2020)

Legend:
Type in all cases: cell-based
Normal WI38 cells = assay: Cell viability of normal WI38 cells at 72 h (LD50); details: for CC50: Homo sapiens, WI-38, 72 h, read-out: LD50 non-senescent cells (NSC); for LD50 (normal): normal WI38 cells, Table 1
Experimental: (§1) Normal WI38 cells (FIG. 1A), IR-induced senescent cells (FIG. 1B) and replicative senescent cells (FIG. 1C) were incubated with increasing concentrations of PL. At 72 hours post-treatment cell viability was measured. […] IR-induced senescent WI38 cells were treated with 10 μM PL and viable cells were measured at 0, 1, 2, 3, 6, 12, 16, 24, 48 and 72 hours after treatment (FIG. 1D) or the cells were incubated with 10 μM PL for 1, 3, 6, 12, 24, 48 or 72 hours and cell viability was measured at 72 h (FIG. 1E).
(§2) At 72 hours post-treatment cell viability was measured.
(§3) Normal WI38 cells and IR-induced senescent cells were incubated with increasing concentrations of compounds of Formula I and Formula II. At 72 hours post-treatment cell viability was measured and LD50 was calculated.

[1] = system: IR-induced senescent WI38 cells; assay: Cell viability of IR-induced senescent WI38 cells at 72 h (LD50); details: for IC50: Homo sapiens, WI-38, 72 h, read-out: LD50 IR-senescent cells (SC); for Ratio (NSC/SC) / Ratio (normal/senescent): ratio of LD50 values; for Ratio (NSC/SC): Table 2; for LD50 (IR-senescent): IR-induced senescent WI38 cells; for LD50 (IR-senescent) / Ratio (normal/senescent): Table 1
Experimental: as §1, §2, §3

[2] = system: replicative senescent WI38 cells; assay: Cell viability of replicative senescent WI38 cells at 72 h (LD50)
Experimental: as §1

[3] = system: IR-induced senescent WI38 cells; assay: Reactive oxygen species (ROS) measurement after PL treatment; details: 10 μM PL, at 24 hours
Experimental: PL selectively increases ROS in senescent WI38 in a time-dependent manner. Normal (FIG. 2A) and IR-induced senescent WI38 cells (FIG. 2B) were incubated with vehicle (Veh), […] H2O2 for 30 min as a positive control, or 10 μM PL. Reactive oxygen species (ROS) was measured at various times (1, 3, 6, 12, 24 hours) after PL treatment and expressed as percent of control. Data are presented as mean±SE of three independent assays.

Structure (SMILES): COc1cc(/C=C(\C#N)C(=O)N2CCC=CC2=O)cc(OC)c1OC [XZ-12052]
- CC50 (Normal WI38 cells): 80 µM
- IC50 [1]: 41 µM
- Ratio (NSC/SC) [1]: 1.95

Structure (SMILES): CCCOc1c(OC)cc(/C=C/C(=O)N2CCC=CC2=O)cc1OC [GZ-11719-by]
- CC50 (Normal WI38 cells): 84.7 µM
- IC50 [1]: 47.1 µM
- Ratio (NSC/SC) [1]: 1.80

Structure (SMILES): COc1cc(/C=C/C(=O)N2CCCCCC2=O)cc(OC)c1OC [XL-11178A]
- CC50 (Normal WI38 cells): > 40 µM
- IC50 [1]: > 40 µM

Structure (SMILES): C=C1CCCN(S(=O)(=O)/C=C/c2ccccc2)C1=O [XZ-12107]
- CC50 (Normal WI38 cells): 24 µM
- IC50 [1]: 4.77 µM
- Ratio (NSC/SC) [1]: 5.02

Structure (SMILES): CCCCCCCCCC[P+](c1ccccc1)(c1ccccc1)c1ccccc1 [Decyl-triphenylphosphonium, reference compound]
- LD50 (normal) (Normal WI38 cells): 1.41 µM
- LD50 (IR-senescent) [1]: 0.98 µM
- Ratio (normal/senescent) [1]: 1.4

Structure (SMILES): CCCCS(=N)(=O)CCC(N)C(=O)O (stereo not drawn) [Buthionine sulfoximine, reference compound]
- LD50 (normal) (Normal WI38 cells): 2340.19 µM
- LD50 (IR-senescent) [1]: 2391.51 µM
- Ratio (normal/senescent) [1]: 1.0

Structure (SMILES): O=C(C#Cc1ccccc1)N1CCC=CC1=O [XZ 12040]
- CC50 (Normal WI38 cells): 5.78 µM
- IC50 [1]: 2.4 µM
- Ratio (NSC/SC) [1]: 2.41

Structure (SMILES): O=C1C=CCCN1C(=O)/C=C/c1ccccc1C(F)(F)F [XZ-12047]
- CC50 (Normal WI38 cells): 21.9 µM
- IC50 [1]: 10.8 µM
- Ratio (NSC/SC) [1]: 2.03

Structure (SMILES): CC(=O)OC[C@H]1O[C@@H]([S-])[C@H](OC(C)=O)[C@@H](OC(C)=O)[C@@H]1OC(C)=O.CCP(CC)CC.[Au+] [Auranofin, reference compound]
- LD50 (normal) (Normal WI38 cells): 5.13 µM
- LD50 (IR-senescent) [1]: 5.34 µM
- Ratio (normal/senescent) [1]: 1.0

Structure (SMILES): COc1cc(/C=C/C(=O)N2CCC=CC2=O)cc(OC)c1OC [PL, 5,6-dihydro-1-[(2E)-1-oxo-3-(3,4,5-trimethoxyphenyl)-2-propenyl]-2(1H)-pyridinone, reference compound]
- effect on cell viability (Normal WI38 cells; PL up to 10 μM, 72 hours): no significant effect
- LD50 (normal) (Normal WI38 cells): 24.25 µM
- viable cells over time ([1]; 10 μM PL, from 6 hours on, both treatment scenarios): significant reduction in viable cells
- LD50 (IR-senescent) [1]: 7.05 µM
- effect on number of viable cells ([1]; PL as low as 5 μM, 72 hours): significantly reduced the number of viable cells
- Ratio (normal/senescent) [1]: 3.44-3.82
- effect on number of viable cells ([2]; PL as low as 5 μM, 72 hours): significantly reduced the number of viable cells
- LD50 (Replicative) ([2]; replicative senescent WI38 cells, Table 1): 6.35 µM
- ROS production [3]: significantly increased ROS production

Structure (SMILES): COc1cc(/C=C(\Br)C(=O)N2CCC=CC2=O)c(Br)c(OC)c1OC [GZ-11734]
- CC50 (Normal WI38 cells): 7.16 µM
- IC50 [1]: 1.39 µM
- Ratio (NSC/SC) [1]: 5.14

Structure (SMILES): CC(=O)N[C@@H](CS)C(=O)O [NAC, N-Acetyl-Cysteine, reference compound]
- effect on PL induced cell death ([1]; pre-treatment 2 hours (NAC 1 mM; Q-VD-OPh 20 μM), then 10 μM PL 72 h): selectively inhibited PL induced cell death

Structure (SMILES): COc1cc(/C=C/C(=O)N2CCC=CC2=O)cc(OC)c1OCCN(C)CCOc1c(OC)cc(/C=C/C(=O)N2CCC=CC2=O)cc1OC [GZ-11719]
- CC50 (Normal WI38 cells): 1.62 µM
- IC50 [1]: 0.9 µM
- Ratio (NSC/SC) [1]: 1.80

Structure (SMILES): COc1cc(C#CC(=O)N2CCC=CC2=O)cc(OC)c1OC [XZ-12045]
- CC50 (Normal WI38 cells): 13.9 µM
- IC50 [1]: 4.38 µM
- Ratio (NSC/SC) [1]: 3.18

Structure (SMILES): COc1cc(/C=C/C(=O)N2CCC=CC2=O)cc(OC)c1OCCN(C)C [XL-11194]
- CC50 (Normal WI38 cells): 10.3 µM
- IC50 [1]: 4.02 µM
- Ratio (NSC/SC) [1]: 2.56
